US12280029B2, “Methods of treatment of inflammation related conditions using pluripotent anti-inflammatory and metabolic modulators” (INSTITUT PASTEUR DE MONTEVIDEO, priority 2016, dated 2025)

What was measured:
[1] = target: GAPDH (Homo sapiens, UniProt P04406); test: GAPDH activity; type: biochemical
[2] = test system: inflammasome in THP-1 cells differentiated into macrophages; test: Inflammasome inhibition in THP-1 macrophages (LPS + ATP, IL-1b ELISA); type: cell-based, human; details: for inhibition of the inflammasome (IL-1b secretion), applied with the second signal: LPS (250 ng/mL, 3 hs.), then together with ATP (5 mM, 45 minutes), SANA 0.05, 0.125 and 0.25 mM, Salicylic acid 0.25 mM; for inhibition of the inflammasome (IL-1b secretion), applied with the first signal: together with LPS (250 ng/mL, 3 hs.), then ATP (5 mM, 45 minutes), SANA 0.05, 0.125 and 0.25, Salicylic acid 0.2.5 mM
Procedure: In FIGS. 8 and 9 show the inhibition of inflammasome in THP-1 cells differentiated into macrophages (PMA 200 nM, 48 hs.) by SAMA but not by SA when applied together with the first (FIG. 8) or the second (FIG. 9) signal. In FIG. 8 cells were treated with Salicylic acid (0.2.5 mM) or SANA (0.05; 0.125 and 0.25) together with LPS stimulation. The cells were stimulated with LPS (250 ng/mL, 3 hs.) and then with ATP (5 mM, 45 minutes). Supernatant was collected and IL-1b measured by ELISA. Cell viability was assessed by MTT assay. […] In FIG. 9 THP-1 cells were differentiated into macrophages with PMA (200 nM, 48 hs.). Cells were stimulated with LPS (250 ng/mL, 3 hs.) and then with ATP (5 mM, 45 minutes), Together with ATP treatment, cells were then treated with […] (10 uM), Salicylic acid (0.25 mM) or SANA (0.05; 0.125 and 0.25 mM). Supernatant was collected and IL-1b secretion was measured by ELISA. Cell viability was assessed by the MTT assay.

[3] = test system: NF-κB/p65 in THP-1 macrophages; test: LPS-induced NF-κB/p65 subcellular localization, immunofluorescence and epifluorescence microscopy; type: cell-based, human
Source text: Nuclear factor kappa B (NF-κB) represents a family of pro-inflammatory transcription factors, present in all eukaryotic cells, which regulate inducible expression of wide ranging genes involved in immune responses and cell-cycle regulation. Activation of NF-κB is accompanied by nuclear translocation of NF-κB. […] Specifically, FIG. 3 illustrates immunofluorescence and epifluorescence microscopy analysis showing the effect of SANA on LPS-induced NF-κB/p65 subcellular localization in THP-1 macrophages.

[4] = Stopped-flow kinetic measurement of the reaction with BME; type: physicochemical; details: 25 μM, BME 0.54-2.73 mM, absorbance at 260 nm, 25° C., triplicate, slope of pseudo first order constants vs BME
Procedure: In FIG. 2, it is shown that the reaction between SANA and BME was determined to be a second order rate constant. Stopped-flow kinetic measurements were performed using an Rx 2000 stopped flow analyzer (Applied Photophysics). Mixtures of 1.50 μL […] (25 μM) and solutions of BME at 0.54 mM, 1.09 mM, 1.64 mM, 2.18 mM, and 2.73 mM concentrations.
The reaction was monitored by following the absorbance at 260 nm and plots were fitted to a simple exponential decay function using Originlab software (version 8.0.). The observed pseudo first order constant at each concentration of BME was extracted from the equation and plotted against the concentration of BME. The second rate constant of the reaction is derived from the slope of the curve and was 182±6 M^−1s^−1. All experiments were carried out at 25° C. by triplicate.

[5] = test system: NF-kB-dependent gene expression in THP-1 cells differentiated into macrophages; test: NF-kB-dependent gene expression in human macrophages (qPCR); type: cell-based; details: 100 and 200 uM for 2 hours, then LPS (3 hours)
Procedure: THP-1 cells were differentiated into macrophages. Cells were then treated with SANA (100 and 200 uM) or Salicylic acid (SA: 100 and 200 uM) for 2 hours. Cells were then stimulated with LPS (1 mg/mL, 3 hours) mRNA was extracted and IL-6, TNF-a and MCP-1 fold change gene expression over control were quantified by qPCR.

[6] = Adduct formation of SANA with glutathione, followed spectrophotometrically (UV-visible); type: physicochemical; details: pH 7.4, GSH 1 mM, scans every min up to 15 min
Procedure: (§1) UV-visible spectra was acquired by a Varian Cary 50 Bio. Scans were taken every min up to 15 min.

[7] = test system: HFD-induced obese mice; test: Insulin resistance in HFD-induced obese mice (glucose tolerance test); type: in vivo; details: 100 mg/kg gavage every day during four weeks
Procedure: Mice under RFD for up to 7 months (mean weight around 40 gr.) were treated with SANA (100 mg/kg; gavage) or phosphate buffer (control) every day during four weeks. The glucose tolerance test were run as per well-known standard procedures.

[8] = test system: Nrf2/Keap1-dependent gene expression in Hep G2 cells; test: Phase two enzymes Nrf2/Keap1-dependent gene expression (qPCR); type: cell-based; details: Hep G2, five hours, SANA 0.1 mM, Salicylic Acid 0.2. and 5 mM
Procedure: FIGS. 6 and 7 show induction of phase two enzymes Nrf2/Keap1-dependent gene expression by SANA but not by SA. Hep G2 cells were treated with SANA (0.1 mM) or Salicylic Acid (0.2. and 5 mM) for five hours. mRNA was extracted from the cells and was measured HO-1, GCLM and NQO1 gene expression by qPCR.

[9] = Adduct formation of SANA with β-mercaptoethanol, followed spectrophotometrically (UV-visible); type: physicochemical; details: pH 7.4, BME 1 mM, scans every min up to 15 min
Procedure: as §1

[10] = test system: skin allograft, C57BL/6 female mice grafted with skin of C57BL/6 male mice; test: Skin allograft rejection in mice; type: in vivo; details: from one day before until 15 days after transplantation
Procedure: C57BL/6 female mice were grafted with skin from the tails of C57BL/6 male mice. The skin graft is a small square (1 cm^2) and it was implanted onto the left subscapular region of the female mice. From one day before the transplantation until 15 days after it, the mice were treated daily with SANA. (1.00 mg/kg, by oral gavage; SANA group) or vehicle (Control group). The vehicle used was a solution of Carboxy-Methyl-cellulose 0.5% m/v and Tween 80 0.5% v/v. At the end of the 15th day of administration, allografts were checked every 48/72 hours to assess the condition of the grafted skin. Rejection was diagnosed clinically when the allograft lost more than 50% of its size and/or more than 10% of allograft was necrotic. […] The study followed the protocol described above for FIG. 1, but further included a Salicylate group. C57BL/6 female mice were grafted with skin from the tails of C57BL/6 male mice. The skin graft is a small square (1 cm^2) and it was implanted onto the left subscapular region of the female mice. From one day before the transplantation until 15 days after it, the mice were treated daily with Salicylate (100 mg/kg, by oral gavage; Salicylate group), SANA (100 mg/kg, by oral gavage; SANA group) or vehicle (Control group). The vehicle used was a solution of Carboxy-Methyl-cellulose 0.5% m/v and Tween 80 0.5% v/v. […]

[11] = test system: Il-1b secretion into the peritoneum; test: LPS-induced Il-1b secretion into the peritoneum in vivo

Sequence of GAPDH (P04406 whole entry, species assumed): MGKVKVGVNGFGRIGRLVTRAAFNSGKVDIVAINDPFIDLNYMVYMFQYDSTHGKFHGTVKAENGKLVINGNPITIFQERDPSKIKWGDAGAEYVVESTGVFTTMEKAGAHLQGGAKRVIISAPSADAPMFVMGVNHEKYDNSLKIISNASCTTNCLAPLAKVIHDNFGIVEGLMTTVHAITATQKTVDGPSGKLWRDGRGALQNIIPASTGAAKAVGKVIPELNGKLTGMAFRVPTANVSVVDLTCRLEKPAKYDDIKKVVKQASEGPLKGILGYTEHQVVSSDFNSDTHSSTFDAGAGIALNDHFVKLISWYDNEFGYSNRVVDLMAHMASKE

## O=C(O)c1cc(/C=C/[N+](=O)[O-])ccc1O [SANA, 2-hydroxy-5-(2-nitroethenyl)benzoic acid]
[1]
  inhibition of GAPDH activity: does not inhibit GAPDH activity
[2]
  inhibition of the inflammasome (IL-1b secretion), applied with the second signal: potent inhibitor of the inflammasome
  inhibition of the inflammasome (IL-1b secretion), applied with the first signal: potent inhibitor of the inflammasome
[3]; 0.1 mM, 2 hs before activation with LPS (1 ug/mL)
  LPS-induced NF-κB/p65 nuclear translocation: lack of nuclear translocation of NF-κB
[3]; SANA 0.1 mM vs salicylic acid 1 mM
  potency relative to salicylic acid on NF-κB/p65 localization: significantly more potent than salicylic acid
[4]
  second rate constant of the reaction with BME: 182 ± 6 M⁻¹ s⁻¹
[5]
  inhibition of NF-kB-dependent gene expression (IL-6, TNF-a and MCP-1 mRNA fold change over control): inhibition of NF-kB-dependent gene expression
[6]
  adduct formation with GSH (increase of absorption at 360 nm): adduct formation
[7]
  insulin resistance (glucose tolerance test): reverses insulin resistance
[8]
  induction of Nrf2/Keap1-dependent gene expression (HO-1, GCLM and NQO1): induction
[9]
  adduct formation with BME (increase of absorption at 360 nm): adduct formation
[10]; 1.00 mg/kg by oral gavage daily
  survival of grafted skin vs control group: prolonged survival of grafted skin as compared to a control group
[10]; 100 mg/kg by oral gavage daily, Salicylate 100 mg/kg
  skin allograft rejection vs salicylic acid: significant reduction in skin allograft rejection compared to salicylic acid
[11]
  LPS-induced Il-1b secretion into the peritoneum: decreases

## O=C(O)c1ccccc1O [salicylic acid, reference compound]
[2]
  inhibition of the inflammasome (IL-1b secretion), applied with the second signal: cannot inhibit
  inhibition of the inflammasome (IL-1b secretion), applied with the first signal: cannot inhibit
[3]; 1 mM, LPS (1 ug/mL)
  LPS-induced NF-κB/p65 subcellular localization, effect compared with SANA 0.1 mM: the same effect
[5]
  inhibition of NF-kB-dependent gene expression (IL-6, TNF-a and MCP-1 mRNA fold change over control): not able to inhibit NF-kB dependent gene expression
[8]
  induction of Nrf2/Keap1-dependent gene expression (HO-1, GCLM and NQO1): not by SA
